# Measurements: ChEMBL document CHEMBL3885861, “Open TG-GATES”
# Species on record: Rattus norvegicus
# Experiment: Open TG-GATES - Regimen: Daily Repeat
# Format: toxicity, organism-based, Sprague-Dawley
# Parameters: regimen Daily Repeat, gender Male, age 6 weeks
# Settings: in vivo, po, route gavage; for APTT / Bas / Eos / Fbg / Hb / Ht / Lym / MCH / MCHC / MCV / Mono / Neu / PT / Plat / RBC / Ret / WBC: tissue Blood; for KIDNEY_L / KIDNEY_R / KIDNEY_TOTAL: tissue Kidney; for LIVER: tissue Liver; for A/G / ALP / ALT / AST / BUN / CRE / Ca / Cl / DBIL / GLC / IP / K / LDH / Na / PL / RALB / TBIL / TC / TG / TP / gamma-GTP: tissue Plasma
# [1] = 0 mg/kg, 72 h, dose level Control, time 3 day
# [2] = 0 mg/kg, […], dose level Control, time 7 day
# [3] = 0 mg/kg, […], dose level Control, time 14 day
# [4] = 0 mg/kg, […], dose level Control, time 28 day
# [5] = 1 mg/kg, 72 h, dose level Middle, time 3 day
smiles,measurement,setting,value
CN1C(C(=O)Nc2ccccn2)=C(O)c2sc(Cl)cc2S1(=O)=O [LORNOXICAM],TERMINAL_BW,[1],242.5 g
same,APTT,[1],20.7 s
same,Bas,[1],0.4%
same,Eos,[1],1%
same,Fbg,[1],223.4 mg/dL
same,Hb,[1],12.9 g/dL
same,Ht,[1],38.6%
same,Lym,[1],79%
same,MCH,[1],21 pg
same,MCHC,[1],33.5%
same,MCV,[1],62.6 fL
same,Mono,[1],2.6%
same,Neu,[1],16.2%
same,PT,[1],11.7 s
same,Plat,[1],126.1 x10_4/uL
same,RBC,[1],617 x10_4/ul
same,Ret,[1],6.1%
same,WBC,[1],110.2 x10_2/uL
same,KIDNEY_L,[1],1 g
same,KIDNEY_R,[1],1 g
same,KIDNEY_TOTAL,[1],2.1 g
same,LIVER,[1],10.9 g
same,A/G,[1],1.7
same,ALP,[1],907.8 IU/L
same,ALT,[1],46.2 IU/L
same,AST,[1],91.2 IU/L
same,BUN,[1],14.4 mg/dL
same,CRE,[1],0.4 mg/dL
same,Ca,[1],10.6 mg/dL
same,Cl,[1],104.2 meq/L
same,DBIL,[1],0.094 mg/dL
same,GLC,[1],222.6 mg/dL
same,IP,[1],6.8 mg/dL
same,K,[1],4.1 meq/L
same,LDH,[1],253.8 IU/L
same,Na,[1],141.6 meq/L
same,PL,[1],145.8 mg/dL
same,RALB,[1],3.5 g/dL
same,TBIL,[1],0.1 mg/dL
same,TC,[1],74.2 mg/dL
same,TG,[1],97.6 mg/dL
same,TP,[1],5.6 g/dL
same,gamma-GTP,[1],1.2 IU/L
same,TERMINAL_BW,[2],279.8 g
same,TERMINAL_BW,[3],335.2 g
same,TERMINAL_BW,[4],380.8 g
same,APTT,[2],20.1 s
same,Bas,[2],0.6%
same,Eos,[2],0.8%
same,Fbg,[2],230.2 mg/dL
same,Hb,[2],13.8 g/dL
same,Ht,[2],40.8%
same,Lym,[2],82%
same,MCH,[2],20.7 pg
same,MCHC,[2],33.7%
same,MCV,[2],61.4 fL
same,Mono,[2],2.2%
same,Neu,[2],13.8%
same,PT,[2],11.4 s
same,Plat,[2],132.2 x10_4/uL
same,RBC,[2],664.6 x10_4/ul
same,Ret,[2],4.8%
same,WBC,[2],106.9 x10_2/uL
same,APTT,[3],21.1 s
same,Bas,[3],0.6%
same,Eos,[3],1%
same,Fbg,[3],221.2 mg/dL
same,Hb,[3],14 g/dL
same,Ht,[3],41%
same,Lym,[3],82%
same,MCH,[3],20.3 pg
same,MCHC,[3],34%
same,MCV,[3],59.6 fL
same,Mono,[3],2.4%
same,Neu,[3],14.2%
same,PT,[3],11.5 s
same,Plat,[3],121.8 x10_4/uL
same,RBC,[3],687.4 x10_4/ul
same,Ret,[3],3.7%
same,WBC,[3],100 x10_2/uL
same,APTT,[4],21.4 s
same,Bas,[4],0.6%
same,Eos,[4],1.2%
same,Fbg,[4],223.4 mg/dL
same,Hb,[4],15.8 g/dL
same,Ht,[4],45.2%
same,Lym,[4],81.6%
same,MCH,[4],20.1 pg
same,MCHC,[4],35%
same,MCV,[4],57.6 fL
same,Mono,[4],1.8%
same,Neu,[4],14.2%
same,PT,[4],11.7 s
same,Plat,[4],108.5 x10_4/uL
same,RBC,[4],784.8 x10_4/ul
same,Ret,[4],2%
same,WBC,[4],101.8 x10_2/uL
same,KIDNEY_L,[2],1.2 g
same,KIDNEY_R,[2],1.2 g
same,KIDNEY_TOTAL,[2],2.4 g
same,KIDNEY_L,[3],1.3 g
same,KIDNEY_R,[3],1.3 g
same,KIDNEY_TOTAL,[3],2.6 g
same,KIDNEY_L,[4],1.4 g
same,KIDNEY_R,[4],1.3 g
same,KIDNEY_TOTAL,[4],2.7 g
same,LIVER,[2],13 g
same,LIVER,[3],14.5 g
same,LIVER,[4],14.4 g
same,A/G,[2],1.7
same,ALP,[2],1004.8 IU/L
same,ALT,[2],33.2 IU/L
same,AST,[2],68.4 IU/L
same,BUN,[2],14 mg/dL
same,CRE,[2],0.4 mg/dL
same,Ca,[2],10.8 mg/dL
same,Cl,[2],102.8 meq/L
same,DBIL,[2],0.1 mg/dL
same,GLC,[2],206 mg/dL
same,IP,[2],6.7 mg/dL
same,K,[2],4 meq/L
same,LDH,[2],206 IU/L
same,Na,[2],140.4 meq/L
same,PL,[2],150 mg/dL
same,RALB,[2],3.6 g/dL
same,TBIL,[2],0.2 mg/dL
same,TC,[2],70.8 mg/dL
same,TG,[2],132.8 mg/dL
same,TP,[2],5.7 g/dL
same,gamma-GTP,[2],1.2 IU/L
same,A/G,[3],1.5
same,ALP,[3],781.8 IU/L
same,ALT,[3],35.6 IU/L
same,AST,[3],66.6 IU/L
same,BUN,[3],15.4 mg/dL
same,CRE,[3],0.4 mg/dL
same,Ca,[3],10.7 mg/dL
same,Cl,[3],104.4 meq/L
same,DBIL,[3],0.096 mg/dL
same,GLC,[3],195 mg/dL
same,IP,[3],6.9 mg/dL
same,K,[3],4 meq/L
same,LDH,[3],196.4 IU/L
same,Na,[3],141.2 meq/L
same,PL,[3],148.6 mg/dL
same,RALB,[3],3.5 g/dL
same,TBIL,[3],0.2 mg/dL
same,TC,[3],72.8 mg/dL
same,TG,[3],118.4 mg/dL
same,TP,[3],5.8 g/dL
same,gamma-GTP,[3],0.8 IU/L
same,A/G,[4],1.4
same,ALP,[4],637.4 IU/L
same,ALT,[4],33.6 IU/L
same,AST,[4],67.4 IU/L
same,BUN,[4],15.8 mg/dL
same,CRE,[4],0.5 mg/dL
same,Ca,[4],10.1 mg/dL
same,Cl,[4],103.8 meq/L
same,DBIL,[4],0.1 mg/dL
same,GLC,[4],198.2 mg/dL
same,IP,[4],6.1 mg/dL
same,K,[4],4 meq/L
same,LDH,[4],173.2 IU/L
same,Na,[4],141.6 meq/L
same,PL,[4],142.8 mg/dL
same,RALB,[4],3.6 g/dL
same,TBIL,[4],0.2 mg/dL
same,TC,[4],67.6 mg/dL
same,TG,[4],148.2 mg/dL
same,TP,[4],6.1 g/dL
same,gamma-GTP,[4],1.2 IU/L
same,TERMINAL_BW,[5],239.1 g
same,APTT,[5],18.8 s
same,Bas,[5],0.8%
same,Eos,[5],0.8%
same,Fbg,[5],276 mg/dL
same,Hb,[5],11.8 g/dL
same,Ht,[5],35.5%
same,Lym,[5],69.8%
same,MCH,[5],21 pg
same,MCHC,[5],33.2%
same,MCV,[5],63.4 fL
same,Mono,[5],3.8%
same,Neu,[5],24.4%
same,PT,[5],11.3 s
same,Plat,[5],122.1 x10_4/uL
same,RBC,[5],561.4 x10_4/ul
same,Ret,[5],6.3%
same,WBC,[5],144.7 x10_2/uL
same,KIDNEY_L,[5],1.1 g
same,KIDNEY_R,[5],1.1 g
same,KIDNEY_TOTAL,[5],2.2 g
same,LIVER,[5],11.7 g
same,A/G,[5],1.4
same,ALP,[5],872.4 IU/L
same,ALT,[5],37.2 IU/L
same,AST,[5],65 IU/L
same,BUN,[5],12 mg/dL
same,CRE,[5],0.4 mg/dL
same,Ca,[5],10.4 mg/dL
same,Cl,[5],104.4 meq/L
same,DBIL,[5],0.098 mg/dL
same,GLC,[5],220.2 mg/dL
same,IP,[5],7.4 mg/dL
same,K,[5],4.5 meq/L
same,LDH,[5],198.6 IU/L
same,Na,[5],140.8 meq/L
same,PL,[5],150 mg/dL
same,RALB,[5],3 g/dL
same,TBIL,[5],0.2 mg/dL
same,TC,[5],74 mg/dL
same,TG,[5],154 mg/dL
same,TP,[5],5.2 g/dL
same,gamma-GTP,[5],1.6 IU/L
same,TERMINAL_BW,"1 mg/kg, […], dose level Middle, time 7 day",275.8 g
